We go through 38 compounds from patent US9981940B2, “Aryl sulfide derivatives and aryl sulfoxide derivatives as acaricides and insecticides” (BAYER CROPSCIENCE AKTIENGESELLSCHAFT, priority 2013, dated 2018).

For one data set, the system named is Tetranychus urticae. The experiment in a line: Tetranychus urticae spray test, OP-resistant (TETRUR). The class given is in vivo. Particulars: after 6 days; for pest or weed control at 500 g/ha: Tetranychus urticae, 144 h, read-out: efficacy. Put shortly:
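Mortality as % efficacy (0% = no mites killed) read 6 days after spraying. Formulation: active ingredient in acetone/dimethylformamide plus emulsifier, diluted with emulsifier-containing water, applied to Phaseolus vulgaris leaf discs carrying every life stage of OP-resistant spider mites.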

A short description of data set [1]: log P by HPLC (OECD Guideline 117), method [b] neutral range. Format: physicochemical. Particulars: HPLC; for logP[b]: method [b] neutral range; for chromatographic logP: reversed-phase C18 HPLC column, neutral range, pH 7.8. The method, then:
(§1) The log P values were determined analogously to OECD Guideline 117 (EC Directive 92/69/EEC) by HPLC (high-performance liquid chromatography) using reversed-phase columns (C 18), by the following methods:
[b] The LC-MS determination in the neutral range is effected at pH 7.8 with 0.001 molar aqueous ammonium hydrogencarbonate solution and acetonitrile as eluents; linear gradient from 10% acetonitrile to 95% acetonitrile.

Data set [2] is described as follows: log P by HPLC (OECD Guideline 117), method [a] acidic range. The class given is physicochemical. The note with it: for logP[a]: HPLC, method [a] acidic range; for chromatographic logP: reversed-phase C18 HPLC column, acidic range. The method, then:
as §1
[a] The LC-MS determination in the acidic range is effected at pH 2.7 with 0.1% aqueous formic acid and acetonitrile (contains 0.1% formic acid) as eluents; linear gradient from 10% acetonitrile to 95% acetonitrile.

Setting [3] is: pH 2.7, HPLC method [a], read-out: logP[a].
Where [4] appears, read: pH 2.7, HPLC, pH 2.7, read-out: log P[a].

`Cc1cc(F)c(-n2nc(N(C)C)n(C)c2=O)cc1SCC(F)(F)F` [Example 190]: the efficacy with Tetranychus urticae (application rate of 500 g/ha) is recorded as 90%. For the same compound, the “logP[b]” value in data set [1] came to 2.81. The “logP[a]” value in data set [2] came out at 2.84.
For `Cc1cc(F)c(-n2nc(C3CCCC3)n(C3CC3)c2=O)cc1SCC(F)(F)F` [Example 358, 5-Cyclopentyl-4-cyclopropyl-2-{2-fluoro-4-methyl-5-[(2,2,2-trifluoroethyl)sulphanyl]phenyl}-2,4-dihydro-3H-1,2,4-triazol-3-one], the pest or weed control at 500 g/ha with Tetranychus urticae (application rate of 500 g/ha) is 100%. In addition, the figures for the chromatographic logP in data set [1], in data set [2] (setting [3]) and in data set [2] (setting [4]) were 4.2, 4.18 and 4.18, respectively.
For the compound `Cc1cc(Cl)c(-n2nc(OCC(C)(C)C)n(C3CC3)c2=O)cc1[S+]([O-])CC(F)(F)F` (centres unmarked) [Example 404], the efficacy with Tetranychus urticae (application rate of 500 g/ha) was found to be 100%. Moreover, the “logP[b]” value in data set [1] was 3.71. In data set [2], the “logP[a]” value came to 3.79.
The matching figures for `CC=Cc1nn(-c2cc(SCC(F)(F)F)c(C)cc2F)c(=S)n1C1CC1` [Example 501]: 90%, 3.94 and 4.00.
In turn, `Cc1cc(F)c(-n2nc(SC(F)(F)F)n(C)c2=O)cc1SCC(F)(F)F` [Example 283] returned an efficacy with Tetranychus urticae (application rate of 500 g/ha) of 100%. In data set [1], the “logP[b]” value is given as 3.64. Also, in data set [2], the “logP[a]” value is given as 3.71.
On the same counts, the results for `O=c1n(-c2ccc(C(F)(F)F)c(SCC(F)(F)F)c2)nc(OCC(F)(F)F)n1C1CC1` [Example 189] are 100%, 4.48 and 4.55.
With `CCCCc1nn(-c2cc([S+]([O-])CC(F)(F)F)c(C)cc2F)c(=O)n1C1CC1` (racemic) [Example 72], the efficacy in the data set with Tetranychus urticae (application rate of 500 g/ha) turned out to be 90%. Besides, the “logP[b]” value in data set [1] came to 2.88. Moreover, the “logP[a]” value in data set [2] came to 2.94.
In turn, `CCn1c(C(F)(F)F)nn(-c2cc(SCC(F)(F)F)c(C)cc2F)c1=O` [Example 57] returned an efficacy with Tetranychus urticae (application rate of 500 g/ha) of 90%. In addition, the “logP[b]” value in data set [1] amounted to 3.88. Besides, in data set [2], the “logP[a]” value was found to be 3.96.
`Cc1cc(F)c(-n2nc(S(C)(=O)=O)n(C)c2=O)cc1[S+]([O-])CC(F)(F)F` (centres unmarked) [Example 421, 2-{2-Fluoro-4-methyl-5-[(2,2,2-trifluoroethyl)sulphinyl]phenyl}-4-methyl-5-(methylsulphonyl)-2,4-dihydro-3H-1,2,4-triazol-3-one]: in the data set with Tetranychus urticae (application rate of 500 g/ha), the pest or weed control at 500 g/ha was determined as 100%. The chromatographic logP in data set [1] is 1.84; in data set [2] (setting [3]) it was 1.88; in data set [2] (setting [4]), 1.88.
For the compound `Cc1cc(F)c(-n2nc(C3CC3)n(C(C)C)c2=O)cc1SCC(F)(F)F` [Example 347], the efficacy in the data set on Tetranychus urticae (application rate of 500 g/ha) was determined as 100%. Also, the “logP[b]” value in data set [1] is 3.63. In addition, in data set [2], the “logP[a]” value is recorded as 3.70.
In the data set with Tetranychus urticae (application rate of 500 g/ha), `Cc1cc(F)c(-n2nc(N(C)C)n(C3CC3)c2=O)cc1SCC(F)(F)F` [Example 193] had an efficacy of 100%. Also, the “logP[b]” value in data set [1] came out at 3.15. Besides, the “logP[a]” value in data set [2] is given as 3.20.
For the compound `COC1=CC(=O)N(c2cc([S+]([O-])CC(F)(F)F)c(C)cc2Cl)C1` (centres unmarked) [Example 318], the efficacy with Tetranychus urticae (application rate of 500 g/ha) is 90%. Further, the “logP[b]” value in data set [1] came out at 1.94. Moreover, the “logP[a]” value in data set [2] is reported as 1.99.
Take `Cc1cc(F)c(-n2nc(Br)n(C(C)(C)C)c2=O)cc1[S+]([O-])CC(F)(F)F` (centres unmarked) [Example 441]: the efficacy with Tetranychus urticae (application rate of 500 g/ha) amounted to 100%. The “logP[b]” value in data set [1] came to 2.98. Besides, in data set [2], the “logP[a]” value is listed as 3.02.
In turn, `COc1nn(-c2cc([S+]([O-])CC(F)(F)F)c(C)cc2F)c(=O)n1C(C)C` (centres unmarked) [Example 413] registered an efficacy in the data set on Tetranychus urticae (application rate of 500 g/ha) of 90%. The “logP[b]” value in data set [1] was 2.40. Besides, the “logP[a]” value in data set [2] is 2.44.
For `CCCSc1nn(-c2cc(SCC(F)(F)F)c(C)cc2F)c(=O)n1CC` [Example 288], the efficacy with Tetranychus urticae (application rate of 500 g/ha) stood at 100%. Also, the “logP[b]” value in data set [1] amounted to 3.13. Besides, the “logP[a]” value in data set [2] was determined as 3.18.
The matching figures for `Cc1cc(F)c(N2C(=O)C(Cl)=C(Cl)C2=O)cc1SCC(F)(F)F` [Example 338]: 90%, 4.00 and 3.99.
The matching figures for `Cc1cc(F)c(-n2ncn(N)c2=O)cc1SCC(F)(F)F` [Example 211]: 100%, 2.01 and 2.02.
On the same counts, the results for `CC=Cc1nn(-c2cc([S+]([O-])CC(F)(F)F)c(C)cc2F)c(=O)n1C1CC1` (racemic) [Example 82] are 100%, 2.42 and 2.48.
`Cc1cc(F)c(-n2nc(C(C)(C)C)oc2=O)cc1[S+]([O-])CC(F)(F)F` (racemic) [Example 452]: the efficacy with Tetranychus urticae (application rate of 500 g/ha) is given as 100%. Besides, the “logP[b]” value in data set [1] is 3.09. In data set [2], the “logP[a]” value is 3.10.
On the same counts, the results for `C=CCSc1nn(-c2cc([S+]([O-])CC(F)(F)F)c(C)cc2F)c(=O)n1C` (racemic) [Example 291] are 100%, 2.51 and 2.55.
Regarding `C=CCn1c(C(F)(F)F)nn(-c2cc(SCC(F)(F)F)c(C)cc2F)c1=O` [Example 345], the efficacy in the data set with Tetranychus urticae (application rate of 500 g/ha) is reported as 100%. Also, the “logP[b]” value in data set [1] is recorded as 4.04. Also, the “logP[a]” value in data set [2] is 4.02.
The matching figures for `Cc1cc(F)c(-n2nc(C3CCCCC3)n(C3CC3)c2=O)cc1[S+]([O-])CC(F)(F)F` (centres unmarked) [Example 361]: 100%, 3.31 and 3.34.
With `Cc1cc(F)c(-n2ccn(C(C)(C)C)c2=O)cc1SCC(F)(F)F` [Example 488], in the data set on Tetranychus urticae (application rate of 500 g/ha), the efficacy is recorded as 100%. Also, the “logP[b]” value in data set [1] was determined as 3.63. The “logP[a]” value in data set [2] is recorded as 3.69.
For `Cc1cc(F)c(-n2nc(SC(F)(F)F)n(C3CC3)c2=O)cc1SCC(F)(F)F` [Example 263], the efficacy in the data set on Tetranychus urticae (application rate of 100 g/ha) worked out at 100%. The “logP[b]” value in data set [1] is 4.01. In data set [2], the “logP[a]” value is reported as 4.08.
In turn, `COCc1nn(-c2cc(SCC(F)(F)F)c(C)cc2F)c(=O)n1C1CC1` [Example 46] had an efficacy in the data set with Tetranychus urticae (application rate of 500 g/ha) of 90%. In addition, the “logP[b]” value in data set [1] was 2.90. In data set [2], the “logP[a]” value amounted to 2.91.
In turn, `Cc1cc(F)c(-n2ccn(C(C)(C)C)c2=O)cc1[S+]([O-])CC(F)(F)F` (centres unmarked) [Example 489] yielded an efficacy in the data set with Tetranychus urticae (application rate of 500 g/ha) of 90%. For the same compound, the “logP[b]” value in data set [1] is 2.47. For the same compound, in data set [2], the “logP[a]” value was 2.50.
On the same counts, the results for `CCSc1nn(-c2cc(SCC(F)(F)F)c(C)cc2F)c(=O)n1C1CC1` [Example 261] are 100%, 4.03 and 3.99.
As for `COCc1nn(-c2cc(SCC(F)(F)F)c(C)cc2F)c(=O)o1` [Example 450], the efficacy with Tetranychus urticae (application rate of 500 g/ha) was found to be 100%. The “logP[b]” value in data set [1] is given as 3.15. Moreover, the “logP[a]” value in data set [2] was determined as 3.18.
The matching figures for `Cc1cc(F)c(-n2nc(C(C)(C)C)n(C3CC3)c2=O)cc1[S+]([O-])CC(F)(F)F` (racemic) [Example 64]: 100%, 2.97 and 2.95.
The matching figures for `Cc1cc(F)c(-n2nc(C3CC3)n(N)c2=O)cc1[S+]([O-])CC(F)(F)F` (centres unmarked) [Example 206]: 100%, 1.72 and 1.75.
For `Cc1cc(C)c(-n2ncn(C(C)(C)C)c2=O)cc1SCC(F)(F)F` [Example 371], the efficacy in the data set on Tetranychus urticae (application rate of 500 g/ha) came to 100%. The “logP[b]” value in data set [1] is on record as 3.39. The “logP[a]” value in data set [2] stood at 3.46.
In the data set on Tetranychus urticae (application rate of 500 g/ha), `C=CCn1c(OC)nn(-c2cc(SCC(F)(F)F)c(C)cc2F)c1=O` [Example 182] returned an efficacy of 100%. Further, in data set [1], the “logP[b]” value is listed as 3.24. The “logP[a]” value in data set [2] is 3.30.
The compound `Cc1cc(F)c(-n2nc(SC(F)(F)F)n(C3CC3)c2=O)cc1[S+]([O-])CC(F)(F)F` (centres unmarked) [Example 264] displayed an efficacy with Tetranychus urticae (application rate of 500 g/ha) of 100%. Besides, in data set [1], the “logP[b]” value was determined as 2.98. Besides, the “logP[a]” value in data set [2] worked out at 3.05.
For the compound `Cc1cc(F)c(-n2ncn(C(C)(C)C)c2=O)cc1SCC(F)(F)F` [Example 367], in the data set with Tetranychus urticae (application rate of 500 g/ha), the efficacy was determined as 100%. In addition, in data set [1], the “logP[b]” value is on record as 3.23. In addition, the “logP[a]” value in data set [2] was 3.27.
Regarding `C=C(C)CCOc1nn(-c2cc([S+]([O-])CC(F)(F)F)c(C)cc2F)c(=O)n1C1CC1` (centres unmarked) [Example 137], the efficacy with Tetranychus urticae (application rate of 500 g/ha) is given as 90%. In addition, the “logP[b]” value in data set [1] was 3.17. Besides, the “logP[a]” value in data set [2] amounted to 3.25.
The compound `CCOc1nn(-c2ccc(C)c(SCC(F)(F)F)c2)c(=O)n1C1CC1` [Example 122] yielded an efficacy in the data set on Tetranychus urticae (application rate of 500 g/ha) of 100%. The “logP[b]” value in data set [1] was 4.04. Also, in data set [2], the “logP[a]” value worked out at 4.19.
The matching figures for `COc1nn(-c2cc(SCC(F)(F)F)c(F)cc2F)c(=O)n1C1CC1` [Example 171]: 100%, 2.92 and 2.97.
On the same counts, the results for `Cc1cc(F)c(-n2nc(C(C)C)n(C3CC3)c2=O)cc1[S+]([O-])CC(F)(F)F` (centres unmarked) [Example 43] are 100%, 2.47 and 2.52.
